Measured values reported in patent US20040265323A1, “Compositions comprising pathogen elicited epithelial chemoattractant (eicosanoid hepoxilin A3), inhibitors thereof and methods of use thereof” (priority 2003, published 2004).
“And” between values parts separate entries of the source, which are not always exact repeats. Equal values may be shown once. “Also recorded” adds a separate entry of the source.

Columns and labels:
[1] = system: PMN transmigration across T84 cell monolayers; assay: Disruption of hepoxilin A3 gradient by basolateral addition, PMN transepithelial migration across T84 monolayers; assay type: cell-based, human; conditions: 5 μg/ml basolateral; migration induced by S. typhimurium, recombinant SipA or imposed gradients of hepoxilin A3
Source text: (§1) It was further examined if hepoxilin A3 acts in a gradient fashion to drive PMN migration from the basolateral to the apical epithelial surface. For these experiments, the physiologically directed (basolateral-to-apical) PMN transepithelial migration assay using cell culture inserts of inverted T84 monolayers has been used (McCormick et al., 1993; Parkos et al., 1992). Human PMN were isolated from normal volunteers, as described elsewhere (Parkos et al., 1992; Henson and Oades, 1975). PMN transmigration results were represented as PMN cell equivalents (CE) derived from a daily standard PMN dilution curve. PMN which completely traversed the monolayer were represented as the number of PMN (CE/ml in a total volume of 1 ml). Values were expressed as the mean and SD of an individual experiment done in triplicate repeated at least 3 times.
First, any potential gradient by adding excess synthetic hepoxilin A3 to the basolateral compartment was counteracted. […] The establishment of a hepoxilin A3 gradient was next measured quantitatively. […] Hepoxilin A3 decay in both compartments was exponential and the above stated T1/2 values were determined by analyzing the slope of a best-fit line to a log-linear analysis of each data set. […] Instead, the extent of recovery of hepoxilin A3 from the basolateral compartment following an apical application of 4500 pmoles was measured.

[2] = system: PMN; assay: PMN degranulation assessed by elastase release; assay type: cell-based, human
Source text: (§2) To substantiate the notion that hepoxilin A3 was in fact the molecule responsible for PEEC bioactivity, it was examined whether synthetic hepoxilin A3 (BIOMOL, Plymouth Meeting, Pa.) could recapitulate PEEC bioactivity. […] Thus, authentic hepoxilin A3 recapitulates all known aspects of PEEC bioactivity consistent with the notion that hepoxilin A3 is in fact PEEC's active component.

[3] = system: PMN; assay: PMN intracellular Ca2+ mobilization; assay type: cell-based, human
Source text: Further, crude PEEC preparations were collected from postinfected T84 cells monolayers. Samples were first passed through an Amicon ultra-filtration apparatus (Millipore Corp.; Bedford, Mass.) fitted with a 2,000 Da cut-off membrane. Filtrate components were bound to a Backerbond spe™ octadecyl extraction column (J. T. Baker; Philipsburg, N.J.) that was subsequently eluted with water, hexane, and finally methanol. The methanol fraction was dried under vacuum and resuspended in 50:50 (vol:vol) methanol:2 mM Tris HCl (pH 7.5) and injected onto a Vydac C18 (10 μm; 300 Å) semi-preparative column ([…]) equilibrated with 2 mM Tris-HCl (pH 7.5). A methanol gradient of 1-10% over 10 minutes, then 10-60% over 25 minutes, followed by 60-100% over 45 minutes (all at room temperature) was used to isolate active PEEC fractions. Active fractions, having no detectable absorbance at 280 nm and weak absorbance at 214 nm, were analyzed using a Genesis C18 (4 μm, 120 Å) analytical HPLC column (4.6×150 mm) equilibrated with 5 mM triethylamine/acetic acid (pH 7.2). […] (FIG. 2A and B).
as §2

[4] = system: T84 monolayers; assay: Recovery of hepoxilin A3 in basolateral compartment after apical application to T84 monolayers; assay type: in vitro ADME, human; conditions: apical application of 4500 pmoles, over 90 minutes
Experimental: (§3) First, any potential gradient by adding excess synthetic hepoxilin A3 to the basolateral compartment was counteracted. […] The establishment of a hepoxilin A3 gradient was next measured quantitatively. […] Hepoxilin A3 decay in both compartments was exponential and the above stated T1/2 values were determined by analyzing the slope of a best-fit line to a log-linear analysis of each data set. Because of the complex degradation events occurring in both the apical and basolateral compartments, no attempt was made to calculate a transport rate. Instead, the extent of recovery of hepoxilin A3 from the basolateral compartment following an apical application of 4500 pmoles was measured.

[5] = system: P. aeruginosa-induced PMN transepithelial migration, A549 cells; assay: P. aeruginosa-induced PMN transepithelial migration across A549 cell monolayers; assay type: cell-based, human; conditions: excess hepoxilin A3 added to basolateral compartment; data not shown
Source text: It was further determined whether similar hepoxilin A3 recruitment of PMN by apically attached pathogens might occur at other mucosal surfaces. Pseudomonas aeruginosa is the most prominent bacterial spp. present during chronic infection in cystic fibrosis and chronic obstructive pulmonary disease patients and is accompanied by severe inflammation, including the emigration of PMN to the airway lumen (Pizurki et al., 2000; Jahn et al., 2000; Weiss, S. 1989). As a model for the airway epithelium the A549 cell line was used. This cell line is capable of forming a polarized barrier, and is widely employed as a model for the airway epithelial surface (Smart and Casale, 1994). […] Finally, the secretion of hepoxlin A3 in vitro was quantified using this A549 model system. For these experiments, A549 lung epithelial cells (ATTC) were grown in F12K media (Invitrogen) with 10% FBS, and maintained in culture similar to the T84 cell line. The wild type P. aeruginosa (PAO1) was used for infection of A549 after overnight aerobic growth (Luria broth) at 37° C.

[6] = system: PMN transmigration across T84 cell monolayers; assay: PMN transepithelial migration to imposed gradients of lipids across T84 monolayers; assay type: cell-based, human; conditions: for PMN transepithelial migration (PEEC activity) induced by added lipid: imposed gradients across T84 cell monolayers, basolateral-to-apical
Experimental: Crude preparations of PEEC were collected from the apical surface of polarized T84 cell monolayers following infection with S. typhimurium SL1344 as previously described (McCormick et al., 1998). For these experiments, T84 intestinal epithelial cells (passages 45 to 65) were grown in a 1:1 mixture of Dulbecco-Vogt modified Eagles medium and Ham's F-12 medium supplemented with 15 mM Hepes buffer (pH 7.5), 14 mM NaHCO3, 40 mg/liter penicillin, 8 mg/liter ampicillin, 90 mg/liter streptomycin and 5% newborn calf serum. Polarized monolayers of T84 cells were formed and maintained on 0.33 cm^2 ring-supported collagen-coated polycarbonate filters (Costar Corp., Cambridge, Mass.) as previously described (Madara et al., 1992) with recently detailed modifications (Dharmsathaphorn and Madara, 1990). T84 cell monolayers reached a steady-state resistance 4 to 6 days after plating with some variability largely related to cell passage number. Cell culture inserts of inverted monolayers, used to study transmigration of PMN in the physiological basolateral-to-apical direction, were constructed as previously described (Madara et al., 1992; Dharmsathaphorn and Madara, 1990; Nash et al., 1991).
as §1
Arachidonic acid is the initial substrate used by a variety of metabolic pathways involving lipoxygenase (LO) activities—enzymes that add hydroxyl groups at specific carbon atoms of this 20-carbon fatty acid. […] Therefore, in addition to hepoxilin A3, a wide range of arachidonic acid metabolites for their ability to incite the transmigration of PMNs across T84 monolayers in vitro was examined (Table 1). […] This is consistent with previous reports that LTB4 is capable of inducing PMN transmigration.

[7] = system: T84 monolayers; assay: Hepoxilin A3 degradation in apical and basolateral compartments of T84 monolayers; assay type: in vitro ADME, human; conditions: for time to 50% loss of intact compound (T1/2), average: average of two experiments
Experimental: as §3

[8] = Stability in acidified acetonitrile; assay type: physicochemical; conditions: overnight incubation in acid
Experimental: Molecules of the 5-LO, 8-LO, 12-LO and 15-LO pathways of arachadonic metabolism were analyzed by LC/MS breakdown patterns and compared to PEEC. […] Methylation of PEEC samples and hepoxilin A3 also provided similar ion spectra (data not shown). […] PEEC activity was also observed to have other chemical properties similar to hepoxilin A3, such as being labile in the presence of acetonitrile/0.1% trifluoroacetic acid (FIG. 3D).

Question: Which results are given for `CCCCC/C=C\C[C@@H]1O[C@H]1/C=C/C(O)C/C=C\CCCC(=O)O` (some centres unmarked) [hepoxilin A3]?
Answer: effect of basolateral addition on PMN transepithelial migration [1]: significantly diminished PMN transepithelial migration; PMN degranulation [2]: did not induce PMN degranulation; also recorded: not observed; PMN intracellular Ca2+ mobilization [3]: elicited an increase in [Ca^2+] in PMN; intracellular Ca2+ in PMN ([3]; 5 μg/ml, FIG. 4B): increase in intracellular Ca^2+; amount of intact compound recovered from the basolateral compartment [4]: low but detectable amount and low; P. aeruginosa-induced PMN transepithelial migration with gradient disruption [5]: inhibited; PMN transepithelial migration induced by imposed gradients ([6]; hepoxilin A3 0.5-5 μg/ml, FIG. 4A): induce PMN transepithelial migration in a dose dependent fashion; PMN transepithelial migration (PEEC activity) induced by added lipid [6]: induced transepithelial migration; PMN transepithelial migration (PEEC activity) induced by added lipid ([6]; listed as Hepoxilin A3): saturated response; time to 50% loss of intact compound (T1/2), single experiments ([7]; apical chamber): 1.28 h and 1.45 h; time to 50% loss of intact compound (T1/2), average ([7]; apical chamber of T84 monolayers): 1.37 h; time to 50% loss of intact compound (T1/2), single experiments ([7]; basolateral compartment): 0.817 h and 0.625 h; time to 50% loss of intact compound (T1/2), average ([7]; basolateral compartment of T84 monolayers): 0.717 h; stability in acetonitrile/0.1% trifluoroacetic acid [8]: labile
